Measured values from patent US20220235057A1, “CYCLIC FORMYL AND CYCLIC KETONE COMPOUNDS, PREPARATION METHOD THEREFOR, AND PHARMACEUTICAL USE” (priority 2019, published 2022).

System: drug resistant strains of Acinetobacter baumannii
Assay: anti-drug resistant strains of Acinetobacter baumannii (inhibition zone); further: test concentration or dose not given here
Format: cell-based
[1] = resistant strain of Acinetobacter baumannii no. 16
[2] = resistant strain of Acinetobacter baumannii no. 17
[3] = resistant strain of Acinetobacter baumannii no. 18
[4] = resistant strain of Acinetobacter baumannii no. 19
[5] = resistant strain of Acinetobacter baumannii no. 20

Row | SMILES | inhibition zone, diameter [1] [mm] | inhibition zone, diameter [2] [mm] | inhibition zone, diameter [3] [mm] | inhibition zone, diameter [4] [mm] | inhibition zone, diameter [5] [mm]
1 | O=C1C2CCCCN2[C@@H](c2ccco2)N1Nc1ccccc1 (stereo partly shown) [ZKD-5B] | 68 | 48 | 48 | 55 | 68
2 | COc1ccc(CC2N(Nc3ccccc3)C(=O)C3CCCCN32)cc1O (single isomer, unassigned) [ZKD-12A] | 65 | 68 | 68 | 58 | 68
3 | COc1cc([C@@H]2N(Nc3ccccc3)C(=O)C3CCCCN32)ccc1O (stereo partly shown) [ZKD-18A] | 68 | 68 | 68 | 68 | 68
4 | CC1(C)OB(c2ccc([C@@H]3N(Nc4ccccc4)C(=O)C4CCCCN43)cc2)OC1(C)C (stereo partly shown) [ZKD-15A] | 46 | 50 | 40 | 68 | 68
5 | COc1ccc(C2N(Nc3ccccc3)C(=O)C3CCCCN32)cc1OC (stereo not shown) [ZKD-6A] | 45 | 43 | 20 | 25 | 64
6 | Cc1cnc2c(S(=O)(=O)N3CCCCC3C(=O)NNc3ccc(F)cc3)cccc2c1 (stereo not shown) [ZKD-21] | 60 | 48 | 53 | 64 | 68
7 | O=C(NNc1ccc(F)cc1)[C@@H]1Cc2ccccc2CN1 [ZSD-54] | 50 | 58 | 47 | 68 | 68
8 | Cn1cnc(C(=O)NNc2ccc(F)cc2)c1 [ZBM-29] | 51 | 68 | 48 | 68 | 68
9 | O=C1C2CCCCN2[C@H](c2ccco2)N1Nc1ccccc1 (stereo partly shown) [ZKD-5A] | 68 | 68 | 68 | 68 | 68
10 | O=C(NNc1ccc(F)cc1)c1ncc[nH]1 [ZBM-28] | 51 | 68 | 64 | 64 | 68
11 | O=C1C2CCCCN2C(c2ccc(O)cc2)N1Nc1ccccc1 (single isomer, unassigned) [ZKD-4A] | 58 | 40 | 66 | 68 | 62
12 | COc1ccc(CC2N(Nc3ccccc3)C(=O)C3CCCCN32)cc1OC (single isomer, unassigned) [ZKD-13B] | 68 | 68 | 36 | 64 | 68
13 | O=C1C2CCCCN2C(c2ccc(B(O)O)cc2)N1Nc1ccccc1 (stereo not shown) [ZKD-10A] | 56 | 53 | 55 | 48 | 68
14 | COc1cc(C2N(Nc3ccccc3)C(=O)C3CCCCN32)ccc1O (stereo not shown) [ZKD-18B] | 68 | 68 | 68 | 68 | 68
15 | O=C(NNc1ccc(F)cc1)c1cc2ccc(Cl)cc2[nH]1 [ZBM-36] | 30 | 58 | 21 | 68 | 68
16 | COc1ccc([C@@H]2N(Nc3ccccc3)C(=O)C3CCCCN32)cc1O (stereo partly shown) [ZKD-19A] | 68 | 68 | 68 | 68 | 68
17 | O=C(NNc1ccc(F)cc1)C1CCCCN1 (stereo not shown) [ZKD-17] | 67 | 68 | 36 | 68 | 68
18 | COc1ccc(C2N(Nc3ccccc3)C(=O)C3CCCCN32)cc1O (stereo not shown) [ZKD-19B] | 68 | 68 | 68 | 68 | 68
19 | COc1cc(CC2N(Nc3ccccc3)C(=O)C3CCCCN32)ccc1O (single isomer, unassigned) [ZKD-14B] | 54 | 53 | 34 | 68 | 68
20 | COc1ccc([C@H]2N(Nc3ccccc3)C(=O)C3CCCCN32)cc1OC (stereo partly shown) [ZKD-6B] | 16 | 17 | 16 | 20 | 40
21 | O=C(NNc1ccc(F)cc1)c1ccc2cc[nH]c2c1 [ZBM-24] | 38 | 68 | 6 | 50 | 68
22 | COc1ccc(CC2N(Nc3ccccc3)C(=O)C3CCCCN32)cc1OC (single isomer, unassigned) [ZKD-13A] | 68 | 68 | 68 | 64 | 68
23 | O=C1C2CCCCN2[C@@H](c2ccc(B(O)O)cc2)N1Nc1ccccc1 (stereo partly shown) [ZKD-10B] | 39 | 48 | 45 | 46 | 54
24 | CC1(C)OB(c2ccc([C@H]3N(Nc4ccccc4)C(=O)C4CCCCN43)cc2)OC1(C)C (stereo partly shown) [ZKD-15B] | 67 | 68 | 40 | 68 | 68
25 | O=C(NNc1ccc(F)cc1)C1CCc2ccccc2N1 (stereo not shown) [ZXD-F] | 65 | 68 | 68 | 68 | 68
26 | COc1ccc(CC2N(Nc3ccccc3)C(=O)C3CCCCN32)cc1O (single isomer, unassigned) [ZKD-12B] | 68 | 68 | 55 | 60 | 68
27 | O=C(NNc1ccc([N+](=O)[O-])cc1)[C@@H]1Cc2ccccc2CN1 [ZSD-15] | 44 | 40 | 68 | 68 | 40
28 | O=C1C2CCCCN2C(c2ccc(O)cc2)N1Nc1ccccc1 (single isomer, unassigned) [ZKD-4B] | 68 | 68 | 68 | 68 | 68
29 | Cn1cncc1C(=O)NNc1ccc(F)cc1 [ZBM-30] | 45 | 68 | 45 | 68 | 68
